# Laboratory results from publication PMC6131205, “Controlling the regioselectivity and stereospecificity of FAD-dependent polyamine oxidases with the use of amine-attached guide molecules as conformational modulators” (Bioscience Reports, 2018).
# Read-outs that look alike come from different tables or passages of the source.
# Tests used:
# Fms1 [1] = target: T1, Fms1 (Saccharomyces cerevisiae, UniProt P50264); assay: Fms1 cleavage of 1 mM Spd supplemented with aldehydes (E1/E2 regioselectivity); type: biochemical, yeast; set-up: made in house; settings: for E1 cleavage (Put) kcat / E2 cleavage (DAP) kcat / Ratio of E1/E2: fixed 1 mM Spd, aldehyde 25-1000 μM, pH 9.0, 25°C; for effect on cleavage site balance of Spd: Spd plus aldehyde;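 on all read-outs here: recombinant yeast Fms1 reactions in Glycine-NaOH buffer, with products Put and DAP quantified by HPLC using post-column o-phthalaldehyde derivatization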
# T1 sequence (P50264 whole entry): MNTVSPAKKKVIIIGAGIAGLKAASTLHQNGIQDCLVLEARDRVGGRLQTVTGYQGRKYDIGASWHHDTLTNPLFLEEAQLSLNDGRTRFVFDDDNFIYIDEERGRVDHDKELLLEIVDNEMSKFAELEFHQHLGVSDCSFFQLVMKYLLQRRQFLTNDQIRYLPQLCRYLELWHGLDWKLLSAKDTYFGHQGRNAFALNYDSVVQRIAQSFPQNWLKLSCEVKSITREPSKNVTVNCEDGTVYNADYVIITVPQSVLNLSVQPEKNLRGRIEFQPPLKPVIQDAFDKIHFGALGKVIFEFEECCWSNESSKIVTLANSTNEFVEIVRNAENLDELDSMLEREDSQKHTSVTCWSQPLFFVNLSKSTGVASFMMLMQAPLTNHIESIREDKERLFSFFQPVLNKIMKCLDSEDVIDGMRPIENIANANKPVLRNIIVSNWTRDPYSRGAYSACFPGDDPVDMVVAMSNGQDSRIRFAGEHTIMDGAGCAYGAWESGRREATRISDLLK
# Procedure: (§1) HPLC with post-column o-phthalaldehyde-derivatization was used to determine the concentrations of the reaction products Put and 1,3-diaminopropane (DAP) or butane-1,3-diamine respectively as described in [30]. Fms1 activity was determined essentially as described for human recombinant APAO, but reactions were carried out in 100 mM Glycine-NaOH buffer at pH 9.0 in a water bath at +25°C [29, 30].
# SMOX [2] = target: T2, SMOX (Homo sapiens, UniProt Q9NWM0); assay: Inhibition of SMOX (Ki, peroxidase-coupled fluorescence, Spm as substrate)
# T2 sequence (Q9NWM0 whole entry): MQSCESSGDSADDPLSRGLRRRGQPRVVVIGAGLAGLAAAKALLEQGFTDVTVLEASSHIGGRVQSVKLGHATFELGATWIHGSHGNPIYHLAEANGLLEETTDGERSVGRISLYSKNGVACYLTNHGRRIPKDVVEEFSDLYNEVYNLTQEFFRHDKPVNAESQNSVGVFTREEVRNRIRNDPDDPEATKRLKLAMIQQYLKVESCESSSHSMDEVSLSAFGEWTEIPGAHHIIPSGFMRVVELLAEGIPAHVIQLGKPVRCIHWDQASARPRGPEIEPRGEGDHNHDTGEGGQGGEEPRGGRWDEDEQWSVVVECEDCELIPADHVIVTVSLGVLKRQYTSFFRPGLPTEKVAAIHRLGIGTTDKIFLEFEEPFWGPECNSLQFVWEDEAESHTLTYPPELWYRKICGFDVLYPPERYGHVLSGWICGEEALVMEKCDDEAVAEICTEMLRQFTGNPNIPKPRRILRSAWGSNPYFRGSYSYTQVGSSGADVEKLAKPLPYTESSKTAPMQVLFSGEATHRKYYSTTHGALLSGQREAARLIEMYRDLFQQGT
# Procedure: Reaction mixtures contained 40 units/ml horseradish peroxidase (Roche), 1 mM homovanillic acid in 100 mM Glycine-NaOH at pH 9.0 supplemented with 40 ng of SMOX. […] Dilutions of fresh H2O2 were used as standard.
# human recombinant APAO [3] = target: T3, human recombinant APAO (Homo sapiens, UniProt Q6QHF9); assay: Substrate kinetics with human recombinant APAO (HPLC of reaction products); type: biochemical; settings: for Km / Vmax / kcat: 100 mM Glycine-NaOH pH 9.5, 5 mM DTT; for specificity constant ratio (R)-enantiomer/(S)-enantiomer: APAO, ratio of kcat/Km
# T3 construct: made in house
# T3 sequence (Q6QHF9 whole entry): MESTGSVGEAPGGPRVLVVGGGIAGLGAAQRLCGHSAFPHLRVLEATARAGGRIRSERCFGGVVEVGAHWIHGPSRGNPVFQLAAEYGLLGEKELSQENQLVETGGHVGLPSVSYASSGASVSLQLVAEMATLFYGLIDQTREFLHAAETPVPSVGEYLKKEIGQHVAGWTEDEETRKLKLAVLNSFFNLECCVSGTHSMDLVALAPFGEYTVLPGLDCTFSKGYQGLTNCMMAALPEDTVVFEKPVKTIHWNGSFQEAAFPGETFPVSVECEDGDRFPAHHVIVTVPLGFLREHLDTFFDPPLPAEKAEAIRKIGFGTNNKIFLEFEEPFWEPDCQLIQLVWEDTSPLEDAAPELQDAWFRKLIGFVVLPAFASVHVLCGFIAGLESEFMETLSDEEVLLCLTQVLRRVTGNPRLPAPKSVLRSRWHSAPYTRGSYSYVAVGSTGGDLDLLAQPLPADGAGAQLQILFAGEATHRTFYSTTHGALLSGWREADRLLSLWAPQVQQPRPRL
# SMOX [4] = target: T2, SMOX; assay: Substrate properties with human recombinant SMOX; type: biochemical; set-up: made in house
# Source text: Thus, developing specific inhibitors of SMOX is of crucial importance. In addition, the use of specific substrates for SMOX and APAO would enable distinguishing between APAO and SMOX enzyme activities in vivo.
# Fms1 [5] = target: T1, Fms1; assay: Substrate kinetics with recombinant Fms1 (HPLC of reaction products); settings: for kcat / Vmax: Supplementary Table 1, pH 9.0, 100 mM Glycine-NaOH, 25°C, Put formation; for Km: Fms1, text summary of Supplementary Table S2;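 on all read-outs here: recombinant polyamine oxidases incubated with substrate, product amines (putrescine, 1,3-diaminopropane or butane-1,3-diamine) quantified by HPLC after post-column o-phthalaldehyde derivatization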
# Procedure: as §1
# The reactions were carried out in 1 triplicate at pH 9.0 in 100 mM Glycine-NaOH at +25°C.
# values for N -Ac-MeSpd enantiomers were determined by using substrate concentrations of 25, 50,
# for Rac-MeSpd 30 min, (R)-MeSpd 20 min and (S)-MeSpd 40 minutes.
# The reactions were carried out in triplicate at pH 9.0 in 100 mM Glycine-NaOH at +25°C.
# values for MeSpd enantiomers were determined by using substrate concentrations of 100, 300, 600,
# 1000, 2000 and 4000 M. Recombinant Fms1 was 3.8 g/reaction and the incubation time 60
# incubated for 30 min (half of the reaction time of an ordinary sample). E1 cleavage was monitored
# human recombinant APAO [6] = target: T3, human recombinant APAO; settings: cited from earlier work
# Fms1 [7] = target: T1, Fms1; assay: Fms1 cleavage of (R)- or (S)-MeSpd with or without aromatic aldehyde (E1/E2 velocities); type: biochemical, yeast; set-up: made in house
# Fms1 [8] = target: T1, Fms1; assay: as above; type: biochemical, yeast; set-up: made in house; remark: listed apart in the source
# Procedure: Supplementary Table 3 The effects of increasing aromatic aldehyde concentration for the regioselectivity of Fms1 using (R)-MeSpd or (S)-MeSpd as a substrate.
# The reactions were carried out in triplicate at pH 9.0 in 100 mM Glycine-NaOH at +25°C with the fixed 1 or 4 mM MeSpd supplemented with increasing concentration 50 or 500 µM of tested aldehyde. Recombinant Fms1 was 1.6 µg/reaction and the incubation time from 15 to 30 minutes.
# Linearity of reaction was monitored by using T1/2 controls, i.e. samples that have been incubated for 7.5 to 15 min (half of the reaction time of an ordinary sample). E1 cleavage was monitored by HPLC by measuring Put formation and E2 cleavage by determining butane-1,3-diamine content.
# Substrate (R)-MeSpd (S)-MeSpd […]
# [9] = Ki (best-fit value, noncompetitive inhibition), GraphPad Prism global fit, supplement
# [10] = Ki, non-competitive fit, 25, 50 or 100 µM Spm, pH 9.0, 37°C
# [11] = aldehyde A12 50 µM, first of two lines (1 or 4 mM MeSpd, not stated which)
# [12] = aldehyde A12 50 µM, second of two lines (1 or 4 mM MeSpd, not stated which)
# [13] = aldehyde A12 500 µM, first of two lines (1 or 4 mM MeSpd, not stated which)
# [14] = aldehyde A12 500 µM, second of two lines (1 or 4 mM MeSpd, not stated which)
# [15] = aldehyde A13 50 µM, first of two lines (1 or 4 mM MeSpd, not stated which)
# [16] = aldehyde A13 50 µM, second of two lines (1 or 4 mM MeSpd, not stated which)
# [17] = aldehyde A13 500 µM, first of two lines (1 or 4 mM MeSpd, not stated which)
# [18] = aldehyde A13 500 µM, second of two lines (1 or 4 mM MeSpd, not stated which)
smiles,measurement,setting,value
O=CC1CCCCC1 [C00010],E1 cleavage (Put) kcat,Fms1 [1],1.41 ± 0.04 s⁻¹
same,E2 cleavage (DAP) kcat,Fms1 [1],0.43 ± 0.01 s⁻¹
same,Ratio of E1/E2,Fms1 [1],5.4
O=Cc1ccncc1 [C00005],E1 cleavage (Put) kcat,Fms1 [1],7.4 ± 0.2 s⁻¹
same,E2 cleavage (DAP) kcat,Fms1 [1],0.19 ± 0.01 s⁻¹
same,Ratio of E1/E2,Fms1 [1],12.9
O=Cc1ccccc1O [C00002],E1 cleavage (Put) kcat,Fms1 [1],0.54 ± 0.01 s⁻¹
same,E2 cleavage (DAP) kcat,Fms1 [1],0.08 ± 0.00 s⁻¹
same,Ratio of E1/E2,Fms1 [1],5.2
C[C@@H](CCNCCCCN)NC(=O)c1ccncc1 [P4-(S)-MeSpd],Ki,SMOX [2]; [9],1020 µM
same,Ki,SMOX [2]; [10],1020 ± 79 µM
same,Km,human recombinant APAO [3],0.8 ± 0.2 µM
same,Vmax,human recombinant APAO [3],0.02 ± 0.00 µmol/min/mg
same,kcat,human recombinant APAO [3],0.01 ± 0.00 s⁻¹
COc1ccc(C=O)cc1 [A4],effect on cleavage site balance of Spd,Fms1 [1],shifted the balance towards E2 cleavage site
C[C@H](CCNCCCCN)NCc1ccccc1 [Bn-(R)-MeSpd],Ki,SMOX [2]; [9],441 µM
same,Ki,SMOX [2]; [10],441 ± 32 µM
same,substrate of SMOX,SMOX [4],not being substrates of SMOX
same,Km,human recombinant APAO [3],2 ± 0.1 µM
same,Vmax,human recombinant APAO [3],0.15 ± 0.00 µmol/min/mg
same,kcat,human recombinant APAO [3],0.14 ± 0.00 s⁻¹
same,specificity constant ratio (R)-enantiomer/(S)-enantiomer,human recombinant APAO [3],four
O=Cc1cccc(O)c1 [C00003],E1 cleavage (Put) kcat,Fms1 [1],0.31 ± 0.01 s⁻¹
same,E2 cleavage (DAP) kcat,Fms1 [1],0.47 ± 0.01 s⁻¹
same,Ratio of E1/E2,Fms1 [1],0.22
"CC(=O)NCCCNCCCCN [N^1-AcSpd, reference compound]",kcat,Fms1 [5],65 ± 2 s⁻¹
"NCCCCNCCCN [Spd, spermidine, reference compound]",Ratio of E1/E2,"Fms1 [5]; substrate alone, no aldehyde, pH 9.0, 25°C",7.5
C[C@H](CCNCCCCN)NC(=O)c1ccncc1 [P4-(R)-MeSpd],Ki,SMOX [2]; [9],1280 µM
same,Ki,SMOX [2]; [10],1280 ± 111 µM
same,Km,human recombinant APAO [3],3.6 ± 0.6 µM
same,Vmax,human recombinant APAO [3],5.59 ± 0.60 µmol/min/mg
same,kcat,human recombinant APAO [3],5.2 ± 0.6 s⁻¹
Cc1ncc(CO)c(C=O)c1O [C00008],E1 cleavage (Put) kcat,Fms1 [1],1.13 ± 0.03 s⁻¹
C[C@@H](CCNCCCCN)NC(=O)c1ccccc1 [Bz-(S)-MeSpd],Ki,SMOX [2]; [9],846 µM
same,Ki,SMOX [2]; [10],846 ± 82 µM
same,Km,human recombinant APAO [3],0.2 ± 0.2 µM
same,Vmax,human recombinant APAO [3],0.03 ± 0.00 µmol/min/mg
same,kcat,human recombinant APAO [3],0.03 ± 0.00 s⁻¹
CC(=O)N[C@@H](C)CCNCCCCN [N^1-Ac-(S)-MeSpd],Vmax,Fms1 [5],22 ± 1 nmol/min/mg
same,kcat,Fms1 [5],0.02 ± 0.00 s⁻¹
same,Km,human recombinant APAO [6],170 µM
same,kcat,human recombinant APAO [6],1.2 s⁻¹
COc1ccc(C=O)cc1 [C00009],E1 cleavage (Put) kcat,Fms1 [1],0.13 ± 0.00 s⁻¹
same,E2 cleavage (DAP) kcat,Fms1 [1],0.22 ± 0.00 s⁻¹
O=Cc1ccc([N+](=O)[O-])cc1 [C00012],E1 cleavage (Put) kcat,Fms1 [1],0.37 ± 0.00 s⁻¹
same,E2 cleavage (DAP) kcat,Fms1 [1],0.05 ± 0.00 s⁻¹
same,Ratio of E1/E2,Fms1 [1],6.4
CC(=O)N[C@H](C)CCNCCCCN [N^1-Ac-(R)-MeSpd],Vmax,Fms1 [5],61 ± 4 nmol/min/mg
same,kcat,Fms1 [5],0.06 ± 0.00 s⁻¹
same,specificity constant ratio (R)-enantiomer/(S)-enantiomer,human recombinant APAO [3],13
same,Km,human recombinant APAO [6],95 µM
same,kcat,human recombinant APAO [6],9 s⁻¹
"CC(=O)NC(C)CCNCCCCN (centres unmarked) [N1-Ac-MeSpd, N8-Acetyl-1,8-diamino-5-azanonane]",Vmax,Fms1 [5],50 ± 3 nmol/min/mg
same,kcat,Fms1 [5],0.05 ± 0.00 s⁻¹
"C[C@@H](N)CCNCCCCN [(R)-MeSpd, 1,8-diamino-5-azanonane]",E1 cleavage velocity,"Fms1 [7]; Without aldehyde, 1 mM MeSpd",9.5 ± 0.1 nmol/mg/min
same,E1 cleavage velocity,Fms1 [7]; [11],10.5 ± 1.1 nmol/mg/min
same,E2 cleavage velocity,Fms1 [7]; [11],33.7 ± 4.8 nmol/mg/min
same,E1 cleavage velocity,Fms1 [7]; [12],14.0 ± 0.9 nmol/mg/min
same,E2 cleavage velocity,Fms1 [7]; [12],31.8 ± 4.3 nmol/mg/min
same,E1 cleavage velocity,Fms1 [7]; [13],12.7 ± 1.6 nmol/mg/min
same,E2 cleavage velocity,Fms1 [7]; [13],186 ± 24 nmol/mg/min
same,E1 cleavage velocity,Fms1 [7]; [14],14.4 ± 0.8 nmol/mg/min
same,E2 cleavage velocity,Fms1 [7]; [14],216 ± 31 nmol/mg/min
same,E2 cleavage velocity,Fms1 [7]; [15],10.3 ± 3.1 nmol/mg/min
same,E1 cleavage velocity,Fms1 [7]; [16],19.1 ± 0.4 nmol/mg/min
same,E2 cleavage velocity,Fms1 [7]; [16],9.6 ± 2.2 nmol/mg/min
same,E1 cleavage velocity,Fms1 [7]; [17],72.8 ± 2.3 nmol/mg/min
same,E2 cleavage velocity,Fms1 [7]; [17],41.5 ± 3.4 nmol/mg/min
same,E1 cleavage velocity,Fms1 [7]; [18],63.1 ± 1.0 nmol/mg/min
same,E2 cleavage velocity,Fms1 [7]; [18],39.5 ± 2.1 nmol/mg/min
same,Km,Fms1 [5],> 500 µM
same,specificity constant ratio (R)/(S) of benzaldehyde Schiff base derivatives,human recombinant APAO [6]; benzaldehyde Schiff base of MeSpd,eight
same,E2 cleavage velocity,"Fms1 [8]; Without aldehyde, 1 mM MeSpd",4.3 ± 0.9 nmol/mg/min
same,E1 cleavage velocity,"Fms1 [8]; Without aldehyde, 4 mM MeSpd",12.5 ± 0.0 nmol/mg/min
same,E2 cleavage velocity,"Fms1 [8]; Without aldehyde, 4 mM MeSpd",5.6 ± 0.4 nmol/mg/min
same,E1 cleavage velocity,Fms1 [8]; [15],19.1 ± 1.0 nmol/mg/min
O=Cc1ccccc1[N+](=O)[O-] [C00011],E1 cleavage (Put) kcat,Fms1 [1],1.06 ± 0.04 s⁻¹
same,E2 cleavage (DAP) kcat,Fms1 [1],0.03 ± 0.00 s⁻¹
"C[C@H](N)CCNCCCCN [(S)-MeSpd, 1,8-diamino-5-azanonane]",E1 cleavage velocity,"Fms1 [7]; Without aldehyde, 1 mM MeSpd",7.2 ± 0.2 nmol/mg/min
same,E1 cleavage velocity,Fms1 [7]; [11],29 ± 1.0 nmol/mg/min
same,E2 cleavage velocity,Fms1 [7]; [11],20.2 ± 1.0 nmol/mg/min
same,E1 cleavage velocity,Fms1 [7]; [12],31 ± 1.8 nmol/mg/min
same,E2 cleavage velocity,Fms1 [7]; [12],23.3 ± 2.0 nmol/mg/min
same,E1 cleavage velocity,Fms1 [7]; [13],57 ± 1.1 nmol/mg/min
same,E2 cleavage velocity,Fms1 [7]; [13],36 ± 4.2 nmol/mg/min
same,E1 cleavage velocity,Fms1 [7]; [14],62 ± 3 nmol/mg/min
same,E2 cleavage velocity,Fms1 [7]; [14],41 ± 2.5 nmol/mg/min
same,E2 cleavage velocity,Fms1 [7]; [15],8.6 ± 1.8 nmol/mg/min
same,E1 cleavage velocity,Fms1 [7]; [16],44.0 ± 1.2 nmol/mg/min
same,E2 cleavage velocity,Fms1 [7]; [16],10.0 ± 0.6 nmol/mg/min
same,E1 cleavage velocity,Fms1 [7]; [17],66.1 ± 0.0 nmol/mg/min
same,E2 cleavage velocity,Fms1 [7]; [17],6.9 ± 0.7 nmol/mg/min
same,E1 cleavage velocity,Fms1 [7]; [18],73.5 ± 0.4 nmol/mg/min
same,E2 cleavage velocity,Fms1 [7]; [18],7.4 ± 1.3 nmol/mg/min
same,Km,Fms1 [5],> 500 µM
same,E2 cleavage velocity,"Fms1 [8]; Without aldehyde, 1 mM MeSpd",7.9 ± 1.1 nmol/mg/min
same,E1 cleavage velocity,"Fms1 [8]; Without aldehyde, 4 mM MeSpd",9.6 ± 0.1 nmol/mg/min
same,E2 cleavage velocity,"Fms1 [8]; Without aldehyde, 4 mM MeSpd",11.1 ± 1.8 nmol/mg/min
same,E1 cleavage velocity,Fms1 [8]; [15],45.6 ± 2.6 nmol/mg/min
C[C@H](CCNCCCCN)NC(=O)c1ccccc1 [Bz-(R)-MeSpd],Ki,SMOX [2]; [9],589 µM
same,Ki,SMOX [2]; [10],589 ± 58 µM
same,Km,human recombinant APAO [3],1.2 ± 0.7 µM
same,Vmax,human recombinant APAO [3],5.02 ± 0.74 µmol/min/mg
same,kcat,human recombinant APAO [3],4.6 ± 0.7 s⁻¹
O=Cc1ccccn1 [C00007],E1 cleavage (Put) kcat,Fms1 [1],0.49 ± 0.01 s⁻¹
same,E2 cleavage (DAP) kcat,Fms1 [1],0.49 ± 0.01 s⁻¹
same,Ratio of E1/E2,Fms1 [1],2.2
O=Cc1ccccn1 [A18],effect on cleavage site balance of Spd,Fms1 [1],shifted the balance towards E2 cleavage site
O=Cc1cccc(O)c1 [A6],effect on cleavage site balance of Spd,Fms1 [1],shifted the balance towards E2 cleavage site
O=Cc1cccnc1 [C00006],E1 cleavage (Put) kcat,Fms1 [1],5.5 ± 0.1 s⁻¹
same,E2 cleavage (DAP) kcat,Fms1 [1],0.48 ± 0.01 s⁻¹
same,Ratio of E1/E2,Fms1 [1],8.0
O=Cc1ccc(O)cc1 [C00004],E1 cleavage (Put) kcat,Fms1 [1],0.11 ± 0.00 s⁻¹
same,E2 cleavage (DAP) kcat,Fms1 [1],0.03 ± 0.00 s⁻¹
same,Ratio of E1/E2,Fms1 [1],118
O=Cc1ccccc1[N+](=O)[O-] [A7],increase of the ratio of the cleavage pathways (E1/E2),Fms1 [1]; Spd plus aldehyde vs Spd alone,5 fold
